Reference: a melting point compilation (Tetko et al.; mined from patent text by program, amines drawn as free bases though some values may be those of a salt)

| melting point | Structure (SMILES) |
| --- | --- |
| 47 to 47.5 °C | COC(=O)CNc1cccc(CF)c1 |
| 87 to 88 °C | CCOC(=O)c1c(-c2ccccc2)c(Cc2cccc(F)c2C)cn1N |
| 111 to 112 °C | Cc1c(NCC(C)(C)CNCC(O)COc2ccccc2)n(C)c(=O)n(C)c1=O (stereo not drawn) |
| 208 to 210 °C | N#CCCCC#Cc1cc(F)c2ncc(C(=O)NCc3ccc(Cl)cc3)c(O)c2c1 |
| 148 to 153 °C | CC1(O)CN(C(=O)c2cc(C(C)(C)C)c(O)c(C(C)(C)C)c2)C1 |
| 122 to 123 °C | COCC(=O)c1cnc2c(OC)cccc2c1Nc1ccccc1C |
| 218 to 220 °C | CCOC(=O)c1[nH]c2ccccc2c1-c1ccc([N+](=O)[O-])cc1 |
| 254 to 255 °C | COc1ccc(CC2SC(=O)NC2=O)c2ccc(=O)n(C)c12 (stereo not drawn) |
| 60 °C | CCCCCCCNC(=O)Oc1ccc2c(c1)CCCN2C |
| 173 to 174 °C | CC(=O)N1CC(C)(C)c2c1cc(C)c(O)c2C |
| 98 to 99 °C | CCOC(=O)C1=Cc2cccc(NC(=O)CCCCl)c2OCC1 |
| 177 to 179 °C | COc1ccc(OC)c2c1C(=O)c1ccc(C)cc1C2OC (stereo not drawn) |
| 211 to 212 °C | Oc1ccccc1-c1ncc2ncc(Cl)cc2n1 |
| 70 to 73 °C | CCCCCCCCCCCCCCOc1ccc(CN(C(=O)NC)c2cccc(CBr)c2)cc1 |
| 135 to 137 °C | NCc1cc(Cl)ccc1OCC(N)=O |
| 123 to 124 °C | COc1ccc(-n2nc(Sc3cccc(Cl)c3)c(C)c(C#N)c2=O)cc1 |
| 96 to 97 °C | COC(=O)CCC(=O)c1ccc2c(c1)CC(CCNC(C)=O)C2 (stereo not drawn) |

| melting point | Structure (SMILES) |
| --- | --- |
| 140 to 141 °C | Cc1nc2n(c(=O)c1CCCl)CCCC2OCc1ccccc1 (stereo not drawn) |
| 209 °C | CC(C)(C)c1cc(/C=C(\C#N)C(=O)NCCCc2ccccc2)cc(C(C)(C)C)c1O |
| 129 to 130 °C | CCOC(=O)c1[nH]cc2c1C1C=CC2CC1 (stereo not drawn) |
| 142 to 143 °C | CCOC(=O)c1cn(-c2ccc(OC)cc2)c(-c2ccc(OC)cc2)n1 |
| 36 to 37 °C | CCOc1cccc(C(C)=O)n1 |
| 114 to 117 °C | CCc1cnc2c(c1)ON(C(C)(C(N)=O)C(C)C)O2 (stereo not drawn) |
| 122 to 123 °C | CCCC1CCC2C3CCc4cc(O)c(C=O)cc4C3CCC12C (stereo not drawn) |
| 225 to 227 °C | CC1Cc2c(cc(O)cc2C(=O)O)O1 (stereo not drawn) |
| 140 to 141 °C | CCCCCCCCC(SCCCCCC)C(=O)Nc1c(Cl)cc(NC(C)=O)c2ncc(C)cc12 (stereo not drawn) |
| 43 to 45 °C | CCCCOc1cc(C)c(O)cc1C |
| 107 to 109 °C | COc1cccc(-c2[nH]c3ccc(OCc4ccccc4)cc3c2C)c1 |
| 157 to 159 °C | CCOC(=O)CON1C(=O)C(=O)N(c2cc(Cl)ccc2C)C1=S |
| 58 to 62 °C | O=[N+]([O-])c1ccc(Oc2ccc(F)cc2F)cc1 |
| 100 to 102 °C | COCCOC(=O)Nc1cccc(C)c1CCl |
| 63 to 65 °C | CC(C)(Oc1ccc(F)cc1Cl)C(=O)O |
| 63.4 °C | CCOC(=O)C=Cc1cc(OC)c(OC)c(OC)c1 |
| 254 to 256 °C | O=c1cc(O)cc(-c2cccc(Cl)c2)o1 |

The remaining lines, values behind:

| Structure (SMILES) | melting point |
| --- | --- |
| CCCCCCCCCCCCCCCCN(c1ccccc1)S(=O)(=O)c1ccc(Nc2cc(=O)n(-c3c(C)cc(Cl)cc3Cl)n2C(=O)OCC)cc1 | 85 °C |
| CC(C)(C)OC(=O)N1CCNC(=O)C1Cc1ccccc1 (stereo not drawn) | 152 to 154 °C |
| CSCCC(NC=O)C(N)=O (racemic) | 121 to 122 °C |
| N#Cc1cnc2sc(C#Cc3ccncc3)cc2c1Nc1ccc2[nH]ccc2c1 | > 250 °C |
| Cn1c(Br)c(C#N)c(Br)c1C#N | 175 to 178 °C |
| CCN(CC)C(=O)Cc1c(-c2ccc(Cl)cc2)nc2c(C)cc(C)nn12 | 162 to 165 °C |
| CC(C)Cn1c(=O)n(C)c(=O)c2c(S(=O)(=O)N3CC[C@@H](O)C3)c(Cc3cccnc3)sc21 | 161 to 162 °C |
| Cc1ccc(-c2c(-c3ccc(S(C)(=O)=O)cc3)cnn(-c3ccc(F)c(F)c3)c2=O)cc1F | 204 to 206 °C |
| Cc1ccc(C(=O)Nc2ccc(-n3ccnc3C)c(C(F)(F)F)c2)cc1Nc1nccc(-c2cccnc2)n1 | 154 to 163 °C |
| O=C(Cc1ccc2c(c1)OCO2)N[C@H]1CC[C@H](CCN2CCN(c3nccc4c3CCO4)CC2)CC1 | 212 °C |
| COc1ccc(C(=O)Nc2ccccc2)cc1Nc1ccc(C)cc1 | 187 to 188 °C |
| NS(=O)(=O)c1cc(C2CO2)ccc1F (stereo not drawn) | 100 to 103 °C |
| Cc1nnc(-c2ccc3occ(-c4ccccc4C)c3c2)o1 | 83 to 84 °C |
| O=c1[nH]c2ccccc2n1CCN1CCC(Cc2c[nH]c3ccc(F)cc23)CC1 | 220 °C |
| O=c1[nH]c2ccc(CCCN3CCC(Cc4ccc(F)cc4)CC3)cc2o1 | 105 to 107 °C |
| Cc1c(-c2ccc3oc(SCc4ccccn4)nc3c2)nc2ccccn12 | 116 to 118 °C |
| O=c1oc(-c2cc(C(F)(F)F)cc(C(F)(F)F)c2)cc(O)c1Cc1ccccc1 | 80 to 82 °C |
| Cc1ccccc1C(=O)Nc1ccc(C(=O)N2CCCC(N(C)C(=O)c3ccccc3)c3ccccc32)cc1 (stereo not drawn) | 248 to 249 °C |
| FC(F)C(F)(F)Sc1nc(-c2ccccc2)c(-c2ccccc2)n1C1CCCO1 (stereo not drawn) | 145 to 146 °C |
| O=C(O)[C@H](Cc1ccccc1)NC(=O)[C@@H]1CCCN1S(=O)(=O)c1ccc(Cl)cc1 | 69 to 71 °C |
| CC(=O)Nc1nc(CCc2ccc(NC(=N)N)cc2)c(Cc2ccc(S(C)(=O)=O)cc2)s1 | 228 to 230 °C |
| CNc1nc(-c2cccc(NC(=O)c3ccccc3OCc3ccccc3)c2)c2cc(OC)c(OC)cc2n1 | 192 to 194 °C |

| Structure (SMILES) | melting point |
| --- | --- |
| O=c1[nH]ncc2[nH]c(-c3ccc(OC(F)F)c(OC4CC4)c3)c(Cc3ccccc3)c12 | 215 to 217 °C |
| CCCCCCCCCCCCCCCCOC(=O)Nc1ccc(NC(=O)NS(=O)(=O)c2ccc3ccccc3c2)cc1 | 183 °C |
| Nc1cc(-c2ccccn2)cc2nc(-c3ccccc3)nn12 | 278 to 280 °C |
| O=C1Nc2ccc(Br)cc2C(c2ccccc2)=NC1OC(=O)C(F)(F)F (stereo not drawn) | 181 to 183 °C |
| COC(=O)C(C)(C(=O)OC)C(C[N+](=O)[O-])c1ccccc1 (stereo not drawn) | 130 to 132 °C |
| CC(=O)c1cn(C)cc(-c2cccc(C(F)(F)F)c2)c1=O | 130 to 131 °C |
| COc1ccc(S(=O)(=O)N2Cc3ccccc3N(C(=O)COc3ccccc3)CC2C(=O)O)cc1 (stereo not drawn) | 188 to 191 °C |
| COc1ccc(C2=NN(C3CCN(CC(N)=O)CC3)C(=O)C(C)(C)C2)c2c1OC(C)(C)C2 | 215 to 216 °C |
| CC(=O)NCCN1CCc2cc(NC(=O)c3ccccc3-c3ccc(C(F)(F)F)cc3)ccc2C1 | 163 °C |
| O=C1CCC(c2ccc(Cl)c(C(F)(F)F)c2)=NN1 | 195 to 198 °C |
| O=C1Cc2cc(NC(=O)C(=O)N3CCC(Cc4ccc(F)cc4)CC3)ccc2N1 | 152 to 154 °C |
| CON(Cc1ccc(C(=O)OC(C)(C)C)cc1)C(=O)C1=C(O)C(=O)N(C)C1 | 157 to 160 °C |
| ClCc1ccc2ccc3cccc4ccc1c2c34 | 146 to 148 °C |
| O=S(=O)(c1c(F)c(F)c(F)c(F)c1F)c1c(F)c(F)c(F)c(F)c1F | 129 °C |
| COc1cccc(-c2c(C3CCN(C)CC3)[nH]c(=O)c3ccccc23)c1 | 181 to 183 °C |
| O=C(Nc1nnn[nH]1)c1c[nH]c(=S)n1C1CCc2c(F)cc(F)cc2C1 (stereo not drawn) | 228 to 230 °C |
| O=S(=O)(c1ccc(F)cc1)C(F)(F)C(F)(F)C(F)(F)C(F)(F)S(=O)(=O)c1ccc(F)cc1 | 126 to 127 °C |
| COc1nc(NN)c(C(F)(F)F)cc1Cl | 140 to 142 °C |
| Oc1cc(Br)ccc1/C=N/c1ccccc1 | 129 °C |
| O=c1[nH]c2ccc(C=CCN3CCC(Cc4ccc(F)cc4)CC3)cc2o1 | 202 to 204 °C |
| CCCCCCCCCCCCCCCCCCCCCCOC(=O)P(=O)(OC)OC | 60 to 61 °C |
| O=C(c1cc(=O)c2cc(O)ccc2[nH]1)N1CCC(Cc2ccccc2)CC1 | 127 °C |

| Structure (SMILES) | melting point |
| --- | --- |
| Oc1cccc(C2=CCCN(CCc3ccccc3)C2)c1 | 155 °C |
| NS(=O)(=O)OCCOc1ccccc1 | 89 to 91 °C |
| CC(C)c1nc(CN(C)C(=O)N[C@H](C(=O)N[C@@H](Cc2ccccc2)C[C@H](O)[C@H](Cc2ccccc2)NC(=O)OCc2cnc(C(C)C)s2)C(C)C)cs1 | 64 to 66 °C |
| CC12CCC3c4ccc(C(=O)O)cc4CCC3C1CCC2C(=O)CCC1CCCCC1 (stereo not drawn) | 250 to 253 °C |
| NC(=O)C1CCN(c2c(Br)cncc2Br)CC1 | 158 to 160 °C |
| NC(=S)c1ccc([N+](=O)[O-])cc1 | 165 to 167 °C |
| O=C=Nc1ccc(Oc2cccc(Cl)n2)cc1 | 96 to 97 °C |
| COc1ccc(S(=O)(=O)N2c3ccc(Cl)cc3C(O)(c3ccccc3Cl)C2C(=O)N2CCN(C)CC2)cc1OC (stereo not drawn) | 120 °C |
| COc1ccc(N(C(=O)CN2C(=O)C(Cc3nn(Cc4ccccc4)c4ccccc34)(OC)C(=O)N(c3cccnc3)c3ccccc32)C(C)C)cc1 (stereo not drawn) | 223 to 224 °C |
| O=C1CCCCC1C(C[N+](=O)[O-])c1ccccc1Cl (racemic) | 107 to 108 °C |
| CC(CC1CCOCC1)(c1ccc(S(C)(=O)=O)cn1)c1ccc(-c2ccccn2)[nH]1 (stereo not drawn) | 135 to 136 °C |
| CCOC(=O)c1ccc(NC(=O)Nc2c(OC)ccc3c2C(C)(C)COC3(C)C)cc1 | 147 to 149 °C |
| Cc1cc(-c2ccc(S(N)(=O)=O)cc2)n(-c2ccc(SSc3ccc(-n4cc(C)cc4-c4ccc(S(N)(=O)=O)cc4)cc3)cc2)c1 | 251 to 255 °C |
| O=[N+]([O-])c1cc(I)cc(CF)c1 | 50.5 to 51.5 °C |
| Nc1cc(I)ccc1Nc1cccc(-n2cccn2)c1 | 134 to 135 °C |
| COC(=O)c1ncn2c1[C@@H]1CCCN1C(=O)c1sccc1-2 | 192 to 193 °C |
| C=CCOc1cc(N2C(=O)c3ccccc3C2=O)c(F)cc1Cl | 148 to 150 °C |
| CCOC(=O)c1cn(Cc2ccc(Oc3ccccc3)cc2)nc1OCc1ccc(OCc2nc(-c3ccccc3)oc2C)c(OC)c1 | 127 to 128 °C |
| COC(=O)C=CC=CCSc1ccc(Cl)cc1 | 75 to 77 °C |
| CC(C)(C)OC(=O)N1CCC[C@H]1c1nc2c(C(F)(F)F)cccc2c(O)c1C(=O)Nc1nccs1 | 215 °C |
